pIC50: −log10 of the molar value.
Molecular target: T1, p110 alpha PI3K (Homo sapiens, UniProt P42336)
T1 construct: purchased Upstate Cell Signaling Solutions, Charlottesville, Va
Experiment: p110α (alpha) PI3K binding assay (fluorescence polarization; alternatively radiometric)
Conditions: read-out: IC50, Ki (μmole) PI3K, p110 alpha binding assay
Procedure: Binding Assays: Initial polarization experiments were performed on an Analyst HT® 96-384 (Molecular Devices Corp, Sunnyvale, Calif.). […] After an incubation time of 30 minutes at room temperature, the reactions were stopped by the addition of GRP-1 and PIP3-TAMRA probe (Echelon-Inc., Salt Lake City, Utah) 100 nM and 5 nM final concentrations respectively. Read with standard cut-off filters for the rhodamine fluorophore (λex=530 nm; λem=590 nm) in 384-well black low volume Proxiplates® (PerkinElmer, Wellesley, Mass.) Fluorescence polarization values were plotted as a function of the protein concentration, and the EC50 values were obtained by fitting the data to a 4-parameter equation using KaleidaGraph® software (Synergy software, Reading, Pa.). This experiment also establishes the appropriate protein concentration to use in subsequent competition experiments with inhibitors.
After an incubation time of 30 minutes at room temperature, the reactions were stopped by the addition of GRP-1 and PIP3-TAMRA probe (Echelon-Inc., Salt Lake City, Utah) 100 nM and 5 nM final concentrations respectively. Read with standard cut-off filters for the rhodamine fluorophore (λex=530 nm; λem=590 nm) in 384-well black low volume PROXIPLATES® (PerkinElmer, Wellesley, Mass.) Fluorescence polarization values were plotted as a function of the antagonist concentration, and the IC50 values were obtained by fitting the data to a 4-parameter equation in Assay Explorer® software (MDL, San Ramon, Calif.).
The Formula I compound was serially diluted in 100% DMSO. The kinase reaction was incubated for 1 hr at room temperature, and the reaction was terminated by the addition of PBS. IC50 values were subsequently determined using sigmoidal dose-response curve fit (variable slope).

T1 sequence (P42336 whole entry): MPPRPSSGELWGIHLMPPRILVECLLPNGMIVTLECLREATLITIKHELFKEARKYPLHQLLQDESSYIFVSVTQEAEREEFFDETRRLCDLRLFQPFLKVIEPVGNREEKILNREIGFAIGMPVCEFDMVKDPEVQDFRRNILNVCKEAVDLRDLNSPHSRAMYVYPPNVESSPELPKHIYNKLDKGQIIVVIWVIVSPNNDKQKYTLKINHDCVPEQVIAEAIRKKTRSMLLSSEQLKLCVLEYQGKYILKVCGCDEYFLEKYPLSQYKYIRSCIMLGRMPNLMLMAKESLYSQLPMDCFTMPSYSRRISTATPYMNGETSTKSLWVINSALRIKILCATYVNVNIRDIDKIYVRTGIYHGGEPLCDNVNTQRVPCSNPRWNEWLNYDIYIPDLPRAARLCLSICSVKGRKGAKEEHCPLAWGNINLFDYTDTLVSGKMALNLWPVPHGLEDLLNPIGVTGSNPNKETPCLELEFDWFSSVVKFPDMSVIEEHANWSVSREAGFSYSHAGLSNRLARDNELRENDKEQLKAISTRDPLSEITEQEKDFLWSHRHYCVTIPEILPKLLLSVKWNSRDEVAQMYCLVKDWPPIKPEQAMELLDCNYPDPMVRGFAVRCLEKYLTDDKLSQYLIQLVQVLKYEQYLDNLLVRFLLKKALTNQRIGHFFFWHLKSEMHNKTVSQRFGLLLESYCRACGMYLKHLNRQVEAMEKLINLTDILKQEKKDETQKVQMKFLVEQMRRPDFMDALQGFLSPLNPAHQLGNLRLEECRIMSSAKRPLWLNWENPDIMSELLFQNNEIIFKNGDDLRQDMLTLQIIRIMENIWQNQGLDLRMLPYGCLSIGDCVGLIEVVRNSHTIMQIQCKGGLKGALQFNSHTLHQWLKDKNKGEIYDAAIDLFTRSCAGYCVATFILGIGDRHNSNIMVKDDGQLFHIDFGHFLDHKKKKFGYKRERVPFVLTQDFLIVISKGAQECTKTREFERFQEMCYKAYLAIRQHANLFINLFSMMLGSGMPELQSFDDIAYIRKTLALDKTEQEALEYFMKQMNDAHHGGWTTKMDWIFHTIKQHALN
T1 sequence (P27986 whole entry partner): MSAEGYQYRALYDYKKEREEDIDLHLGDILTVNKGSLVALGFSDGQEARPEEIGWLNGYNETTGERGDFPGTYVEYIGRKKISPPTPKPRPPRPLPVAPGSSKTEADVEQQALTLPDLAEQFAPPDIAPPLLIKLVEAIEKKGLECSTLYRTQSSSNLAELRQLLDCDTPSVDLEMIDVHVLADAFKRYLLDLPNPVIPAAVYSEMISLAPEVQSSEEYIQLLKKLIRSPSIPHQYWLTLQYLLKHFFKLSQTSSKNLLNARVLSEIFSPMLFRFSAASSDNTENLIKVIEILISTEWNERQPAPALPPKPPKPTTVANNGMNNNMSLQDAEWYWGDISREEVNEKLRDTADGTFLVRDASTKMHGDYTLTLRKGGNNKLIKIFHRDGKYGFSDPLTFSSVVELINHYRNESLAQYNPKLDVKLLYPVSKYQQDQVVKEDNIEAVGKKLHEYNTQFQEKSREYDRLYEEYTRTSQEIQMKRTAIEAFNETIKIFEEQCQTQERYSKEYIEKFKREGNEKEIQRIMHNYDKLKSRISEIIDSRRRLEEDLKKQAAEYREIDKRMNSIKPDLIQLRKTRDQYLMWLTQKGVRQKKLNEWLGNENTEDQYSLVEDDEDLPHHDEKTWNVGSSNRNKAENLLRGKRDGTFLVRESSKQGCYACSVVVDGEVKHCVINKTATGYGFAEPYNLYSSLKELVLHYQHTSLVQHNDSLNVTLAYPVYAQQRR

CC1(C)OCCn2c1nc1c(N3CCOCC3)nc(-c3cnn(Cc4ccccc4)c3)nc12 [Compound 133, 2-(1-benzyl-1H-pyrazol-4-yl)-6,6-dimethyl-4-morpholino-8,9-dihydro-6H-[1,4]oxazino[3,4-e]purine]
pIC50: < 6.16

CN(C)c1cccc(-c2nc(N3CCOCC3)c3nc4n(c3n2)CCOC4(C)C)c1 [Compound 155, 3-(6,6-dimethyl-4-morpholino-8,9-dihydro-6H-[1,4]oxazino[3,4-e]purin-2-yl)-N,N-dimethylaniline]
pIC50: < 6.16

CC1(C)OCCn2c1nc1c(N3CCOCC3)nc(-c3ccc4[nH]ncc4c3)nc12 [Compound 129, 2-(1H-indazol-5-yl)-6,6-dimethyl-4-morpholino-8,9-dihydro-6H-[1,4]oxazino[3,4-e]purine]
pIC50: < 6.16

CNC(=O)c1ccc(-c2nc(N3CCOCC3)c3nc4n(c3n2)CCOC4(C)C)cn1 [Compound 153, 5-(6,6-dimethyl-4-morpholino-8,9-dihydro-6H-[1,4]oxazino[3,4-e]purin-2-yl)-N-methylpicolinamide]
pIC50: < 6.16

CN1CCN(c2ccc(-c3nc(N4CCOCC4)c4nc5n(c4n3)CCOC5(C)C)cc2)CC1 [Compound 156, 6,6-dimethyl-2-(4-(4-methylpiperazin-1-yl)phenyl)-4-morpholino-8,9-dihydro-6H-[1,4]oxazino[3,4-e]purine]
pIC50: < 6.16

CC1(C)OCCn2c1nc1c(N3CCOCC3)nc(-c3cccc(C(=O)NC4CC4)c3)nc12 [Compound 162, N-cyclopropyl-3-(6,6-dimethyl-4-morpholino-8,9-dihydro-6H-[1,4]oxazino[3,4-e]purin-2-yl)benzamide]
pIC50: < 6.16

CN1CCN(C(=O)c2ccc(-c3nc(N4CCOCC4)c4nc5n(c4n3)CCOC5(C)C)cc2)CC1 [Compound 161, (4-(6,6-dimethyl-4-morpholino-8,9-dihydro-6H-[1,4]oxazino[3,4-e]purin-2-yl)phenyl)(4-methylpiperazin-1-yl)methanone]
pIC50: < 6.16

CCn1cc(-c2nc(N3CCOCC3)c3nc4n(c3n2)CCOC4(C)C)cn1 [Compound 141, 2-(1-ethyl-1H-pyrazol-4-yl)-6,6-dimethyl-4-morpholino-8,9-dihydro-6H-[1,4]oxazino[3,4-e]purine]
pIC50: < 6.16

CN(C)C(=O)c1ccc(-c2nc(N3CCOCC3)c3nc4n(c3n2)CCOC4(C)C)cc1 [Compound 142, 4-(6,6-dimethyl-4-morpholino-8,9-dihydro-6H-[1,4]oxazino[3,4-e]purin-2-yl)-N,N-dimethylbenzamide]
pIC50: < 6.16

CC1(C)OCCn2c1nc1c(N3CCOCC3)nc(-c3ccc(O)nc3)nc12 [Compound 137, 5-(6,6-dimethyl-4-morpholino-8,9-dihydro-6H-[1,4]oxazino[3,4-e]purin-2-yl)pyridine-2-ol]
pIC50: < 6.16

CC(C)Oc1ncccc1-c1nc(N2CCOCC2)c2nc3n(c2n1)CCOC3(C)C [Compound 134, 2-(2-isopropoxypyridin-3-yl)-6,6-dimethyl-4-morpholino-8,9-dihydro-6H-[1,4]oxazino[3,4-e]purine]
pIC50: < 6.16

CC1(C)OCCn2c1nc1c(N3CCOCC3)nc(-c3cccc(N4CCOCC4)c3)nc12 [Compound 145, 6,6-dimethyl-4-morpholino-2-(3-morpholinophenyl)-8,9-dihydro-6H-[1,4]oxazino[3,4-e]purine]
pIC50: < 6.16

CC1(C)OCCn2c1nc1c(N3CCOCC3)nc(-c3cccc(CN4CCOCC4)c3)nc12 [Compound 146, 6,6-dimethyl-4-morpholino-2-(3-(morpholinomethyl)phenyl)-8,9-dihydro-6H-[1,4]oxazino[3,4-e]purine]
pIC50: < 6.16

Cc1n[nH]c(C)c1-c1nc(N2CCOCC2)c2nc3n(c2n1)CCOC3(C)C [Compound 136, 2-(3,5-dimethyl-1H-pyrazol-4-yl)-6,6-dimethyl-4-morpholino-8,9-dihydro-6H-[1,4]oxazino[3,4-e]purine]
pIC50: < 6.16

CC1(C)OCCn2c1nc1c(N3CCOCC3)nc(-c3cccc(OCc4ccccc4)c3)nc12 [Compound 147, 2-(3-(benzyloxy)phenyl)-6,6-dimethyl-4-morpholino-8,9-dihydro-6H-[1,4]oxazino[3,4-e]purine]
pIC50: < 6.16
